Reference: patent publication US10689306B2, “Fertilizer composition and methods of making and using same” (SABIC GLOBAL TECHNOLOGIES B.V., priority 2015, dated 2020)

What was measured:
[1] = hot climatic region; cited from earlier work
[2] = Thermal stability of NBTPT at urea melt temperature by HPLC; type: physicochemical; conditions: 133-135° C., over time
Procedure: The percentage of intact NBTPT in the sample is shown in each chromatogram.
Certain fertilizer additives can be unstable and decompose at elevated temperatures. In a conventional manufacturing process, a fertilizer additive is directly exposed to the temperature of a urea melt, which is typically 133-135° C., during the granulation process. […] Accordingly, at least a portion of NBTPT is lost by using conventional methods.
The fertilizers and methods disclosed herein protect the fertilizer additive from being directly exposed to the temperature of a urea melt during the manufacturing process. The fertilizer core particle of the fertilizer comprises a binder, which protects the fertilizer additive from being directly exposed to the urea melt and the temperature of the urea melt. As such, the fertilizer additive is protected from the elevated temperature and is less likely to decompose. […] Thus, the fertilizers and methods disclosed herein prevent loss of a fertilizer additive, such as, for example, without limitation, an inhibitor, for example NBTPT, during the manufacturing process.
The thermal stability of neat NBTPT and NBTPT contained within a core, as disclosed herein, can be determined by HPLC. […] (133-135° C. is the typical temperature range of a urea melt) and can continuously be analyzed by HPLC every 5 min, until data for 30 min was collected. […]

[3] = cited from earlier work
[4] = Nitrogen loss after 17 days of exposure to Upland Crowley Soil (IFDC)
Procedure: The nitrogen volatilization was measured in different soils for several samples and compared to products on the market, such as Agrotain®, ESN®, and SuperU®. The samples were tested in Greenville soil, Crowley soil, and Brownfield Soil.
Crowley soil consists of very deep, somewhat poorly drained, very slowly permeable soils that formed in clayey fluviomarine deposits of the Pleistocene age. The soil exist in nearly level to very gently sloping soils and occur on flat coastal plains terraces. The slope is dominantly less than 1 percent but ranges to up to 3 percent. The mean annual precipitation is about 1549 mm (61 in), and the mean annual air temperature is about 20 degrees c. (68 degrees F.), where the soil is found. The soil is fine, smectitic, and thermic Typic Albaqualfs.

N#CN=C(N)N [DCD, dicyandiamide]
thermal stability in the soil [1]: thermal instability

CCCCNP(N)(N)=S [NBTPT, N-(n-butyl) thiophosphoric triamide]
thermal stability of neat NBTPT ([2]; neat, FIG. 13): decomposes
thermal stability of NBTPT within a fertilizer core particle ([2]; within a core, FIG. 14): stable over time and does not decompose
stability under acidic pH [3]: unstable

NC(N)=O [Urea, urea]
Cumulative Nitrogen Loss (mg) by 17 Days ([4]; 17 days of exposure to Upland Crowley Soil): 299.08 mg
% Urea ([4]; nitrogen loss relative to urea (100), 17 days, Upland Crowley Soil): 100%
% Reduction in Nitrogen Loss ([4]; versus urea, 17 days, Upland Crowley Soil): 0%
